Experimental data reported in patent US20240390383A1, “DIOXAZINES AND THEIR USE IN TREATMENT OF GBA-RELATED DISEASES” (ZEVRA DENMARK A/S, priority 2021, published 2024).
Values joined by “and” are separate entries in the source; they are usually repeats but may differ in a detail not shown here. Identical values can stand only once. Marks after values point to notes of the source that are not given here.

Target: T1, GCase (GBA) in human fibroblast cell line GM10915 harboring the L444P GBA mutation (Homo sapiens, UniProt P04062, L483P)
T1 construct: Human fibroblast cell line GM10915 harboring the L444P GBA mutation; host or cells: GM10915 human fibroblasts
T1 sequence (P04062 40-536 L483P): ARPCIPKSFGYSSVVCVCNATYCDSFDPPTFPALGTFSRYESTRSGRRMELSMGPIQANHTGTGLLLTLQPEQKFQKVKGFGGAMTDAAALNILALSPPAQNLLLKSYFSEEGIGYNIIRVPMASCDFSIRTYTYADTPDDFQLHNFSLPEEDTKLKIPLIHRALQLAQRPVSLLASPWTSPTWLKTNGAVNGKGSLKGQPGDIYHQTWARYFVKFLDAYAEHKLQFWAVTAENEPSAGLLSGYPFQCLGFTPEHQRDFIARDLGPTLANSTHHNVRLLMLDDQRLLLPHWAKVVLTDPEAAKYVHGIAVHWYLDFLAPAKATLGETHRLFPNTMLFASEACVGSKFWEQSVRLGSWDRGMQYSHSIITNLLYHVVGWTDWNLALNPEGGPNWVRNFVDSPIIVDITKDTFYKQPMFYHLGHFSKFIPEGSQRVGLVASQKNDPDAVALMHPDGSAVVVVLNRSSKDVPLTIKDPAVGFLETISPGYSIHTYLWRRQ
Assay: GCase activity assay (4-MUG substrate, normalised to crystal violet staining) in L444P GBA fibroblasts
Type: cell-based
Details: 5 days exposure; for GBA EC1.5: concentration giving 150% GCase activity (1.5-fold induction), 8-point dose range; for Emax / GBA Emax: maximum percent GCase activity relative to untreated cells in the dose range tested
Outline: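 Patient fibroblasts GM10915 (L444P GBA) exposed to compounds for five days over an 8-point range, with fresh dosing every 2–3 days. Intact-cell GCase measured with 2.5 mM 4-MUG at pH 4.0 for 23 h at 37 °C (ex/em 365/445 nm), normalised to crystal violet, as % of PBS basal; Emax is the maximum reached.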

| GBA EC1.5 | Emax [%] | GBA Emax | SMILES |
| --- | --- | --- | --- |
| 18 µM | 312 | – | CN1CCN(CCC2=NOCC(CN3CCCCC3)O2)CC1 (racemic) [compound 823, rac-3-(2-(4-methylpiperazin-1-yl)ethyl)-5-(piperidin-1-ylmethyl)-5,6-dihydro-1,4,2-dioxazine] |
| 9 µM | 241 | – | C1CCN(CC2CON=C([C@]34CCN[C@H]3CCOC4)O2)CC1 (relative stereo) [compound 462, rac-rel-trans(3aR,7aS)-3a-(5-(piperidin-1-ylmethyl)-5,6-dihydro-1,4,2-dioxazin-3-yl)octahydropyrano[4,3-b]pyrrole di-2,2,2-trifluoroacetate] |
| 5 µM | – | 204% | C1CCN(CC2CON=C([C@]34CCC[C@H]3NCC4)O2)CC1 (relative stereo) [compound 469, rac-3-rel-trans-((3aS,6aR)-hexahydrocyclopenta[b]pyrrol-3a(1H)-yl)-5-(piperidin-1-ylmethyl)-5,6-dihydro-1,4,2-dioxazine] |
| 14 µM | 268 | – | C1CCN(CC2CON=C([C@@]34CNC[C@@H]3C4)O2)CC1 (relative stereo) [compound 482, rac-rel-trans-3-((1R,5R)-3-azabicyclo[3.1.0]hexan-1-yl)-5-(piperidin-1-ylmethyl)-5,6-dihydro-1,4,2-dioxazine] |
| 29 µM | 242 | – | C[C@@H]1CNC[C@@]1(C)C1=NOCC(CN2CCCCC2)O1 (relative stereo) [compound 489, rac-rel-cis-3-((3R,4R)-3,4-dimethylpyrrolidin-3-yl)-5-(piperidin-1-ylmethyl)-5,6-dihydro-1,4,2-dioxazine] |
| 18 µM | 307 | – | C1CCN(CC2CON=C([C@]34CNC[C@H]3COC4)O2)CC1 (relative stereo) [compound 494, rac-rel-trans-(3aR,6aR)-3a-(5-(piperidin-1-ylmethyl)-5,6-dihydro-1,4,2-dioxazin-3-yl)hexahydro-1H-furo[3,4-c]pyrrole] |
| 14 µM | 185 | – | C[C@@H]1CNC[C@H]1C1=NOCC(CN2CCCCC2)O1 (relative stereo) [compound 551, rac-rel-trans-3-((3R,4R)-4-methylpyrrolidin-3-yl)-5-(piperidin-1-ylmethyl)-5,6-dihydro-1,4,2-dioxazine] |
| 7 µM | 187 | – | CN(C)[C@H]1CC[C@@H](C2=NOCC(CN3CCCCC3)O2)CC1 (relative stereo) [compound 569, rac-rel-cis-(1S,4S)—N,N-dimethyl-4-(5-(piperidin-1-ylmethyl)-5,6-dihydro-1,4,2-dioxazin-3-yl)cyclohexan-1-amine] |
| 16 µM | 274 | – | CN1C[C@@H](O)C[C@H](C2=NOCC(CN3CCCCC3)O2)C1 (relative stereo) [compound 724, rac-rel-(3R,5R)-1-methyl-5-(5-(piperidin-1-ylmethyl)-5,6-dihydro-1,4,2-dioxazin-3-yl)piperidin-3-ol] |
| 4 µM and 3 µM | – | 211% and 273% | C1CCN(C[C@@H]2CON=C([C@]34CCC[C@H]3NCC4)O2)CC1 (single isomer, unassigned) [compound 590] |
| 112 µM | – | – | CCCCCO[C@H]1CC[C@H](NC(=O)c2cnn3c(C)cc(C)nc23)CC1 [LTI-291, reference compound] |
| 35 µM | 149 | – | Cn1ncc(CC2(C3=NOCC(CN4CCCCC4)O3)CCNCC2)n1 (stereo not shown) [compound 507] |
| 1 µM | 147 | – | CC(C)c1ccc(CC2(C3=NOCC(CN4CCCCC4)O3)CCNCC2)cn1 (stereo not shown) [compound 538] |
| 1 µM | 140 | – | COc1ncc(CC2(C3=NOCC(CN4CCCCC4)O3)CCNCC2)cc1Cl (stereo not shown) [compound 545] |

More lines, now with the values behind:

| SMILES | GBA EC1.5 | Emax [%] | GBA Emax |
| --- | --- | --- | --- |
| COC1CN(C)CC1C1=NOCC(CN2CCCCC2)O1 (racemic) [compound 821, rac-3-(4-methoxy-1-methylpyrrolidin-3-yl)-5-(piperidin-1-ylmethyl)-5,6-dihydro-1,4,2-dioxazine] | 29 µM | 213 | – |
| CN(C)CC1(C2=NOCC(CN3CCCCC3)O2)CCN(C)C1 (racemic) [compound 826, rac-N,N-dimethyl-1-(1-methyl-3-(5-(piperidin-1-ylmethyl)-5,6-dihydro-1,4,2-dioxazin-3-yl)pyrrolidin-3-yl)methanamine] | 7 µM | 190 | – |
| C1CCN(CC2CON=C([C@]34CNC[C@H]3CCOC4)O2)CC1 (relative stereo) [compound 461, rac-rel-trans-(3aR,7aR)-3a-(5-(piperidin-1-ylmethyl)-5,6-dihydro-1,4,2-dioxazin-3-yl)octahydropyrano[3,4-c]pyrrole] | 19 µM | 203 | – |
| C[C@@]12CNC[C@]1(C1=NOCC(CN3CCCCC3)O1)C2 (relative stereo) [compound 481, rac-rel-trans-3-((1R,5R)-5-methyl-3-azabicyclo[3.1.0]hexan-1-yl)-5-(piperidin-1-ylmethyl)-5,6-dihydro-1,4,2-dioxazine] | 22 µM | 174 | – |
| C1CCN(CC2CON=C([C@]34CC[C@H]3CNC4)O2)CC1 (relative stereo) [compound 485, rac-rel-trans-3-((1R,5R)-3-azabicyclo[3.2.0]heptan-1-yl)-5-(piperidin-1-ylmethyl)-5,6-dihydro-1,4,2-dioxazine di-2,2,2-trifluoroacetate] | 25 µM | 174 | – |
| C1CCN(CC2CON=C([C@]34CCC[C@H]3NCC4)O2)CC1 (relative stereo) [compound 584, rac-rel-trans-3-((3aS,6aR)-hexahydrocyclopenta[b]pyrrol-3a(1H)-yl)-5-(piperidin-1-ylmethyl)-5,6-dihydro-1,4,2-dioxazine] | 10 µM and 5 µM | – | 253% and 204% |
| C1CCN(C[C@@H]2CON=C([C@]34CCC[C@H]3NCC4)O2)CC1 (relative stereo) [compound 589, (rel-R)-3-((rel-trans-3aS,6aR)-hexahydrocyclopenta[b]pyrrol-3a(1H)-yl)-5-(piperidin-1-ylmethyl)-5,6-dihydro-1,4,2-dioxazine] | 4 µM and 5 µM | – | 216% and 272% |
| CN(C)C(=O)[C@@]12CC[C@]1(C1=NOCC(CN3CCCCC3)O1)CNC2 (relative stereo) [compound 765, rac-rel-(1R,5S)—N,N-dimethyl-5-(5-(piperidin-1-ylmethyl)-5,6-dihydro-1,4,2-dioxazin-3-yl)-3-azabicyclo[3.2.0]heptane-1-carboxamide] | 29 µM | 151 | – |
| CC1(C2=NOCC(CN3CCCCC3)O2)CCNCC1 (single isomer, unassigned) [compound 567] | 7 µM | 296 | – |
| Nc1c(Br)cc(Br)cc1CN[C@H]1CC[C@H](O)CC1 [Ambroxol, reference compound] | >20* *The 1.5-fold induction criteria was not reached within the tested concentration range μM | – | – |
| Cc1cncc(CC2(C3=NOCC(CN4CCCCC4)O3)CCNCC2)c1 (stereo not shown) [compound 520] | 13 µM | 136 | – |
| CN(C)c1ccc(CC2(C3=NOCC(CN4CCCCC4)O3)CCNCC2)cn1 (stereo not shown) [compound 543] | 3 µM | 138 | – |
| c1cncc(CC2(C3=NOCC(CN4CCCCC4)O3)CCOCC2)c1 (stereo not shown) [compound 552] | 50 µM | 115 | – |
